Values of other authors as cited in patent US20250295727A1, “STABLE, READY-TO-ADMINISTER AQUEOUS FORMULATIONS OF DALBAVANCIN” (HIKMA PHARMACEUTICALS USA INC., priority 2022, published 2025).

Settings: lyophilized
[1] = storage at 25° C. for 12 months

decrease of B0 [1]: 8.5%
increase of MAG [1]: 10.2%
decrease in dalbavancin's primary factor B0 (storage for 36 months at 5° C.): 3.6%
increase in MAG (storage for 36 months at 5° C.): 2.9%
Substance: dalbavancin [unformulated lyophilized dalbavancin]
